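Where inhibition never reached the appropriate level, the endpoint shown equals the highest concentration tested. Otherwise, values were interpolated linearly from a five-concentration, 48-hour dose response in 96-well plates. At the GI50, growth is halved. TGI denotes the concentration required for complete inhibition of growth.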
Assays:
Assay in all cases: DTP human tumour cell line panel, 48 h
[1] = test system: 786-0 renal
[2] = test system: A498 renal
[3] = test system: A549 NSCLC
[4] = test system: ACHN renal
[5] = test system: BT-549 breast
[6] = test system: CAKI-1 renal
[7] = test system: CCRF-CEM leukemia
[8] = test system: COLO 205 colon
[9] = test system: DU-145 prostate
[10] = test system: EKVX NSCLC
[11] = test system: HCC-2998 colon
[12] = test system: HCT-116 colon
[13] = test system: HCT-15 colon
[14] = test system: HL-60(TB) leukemia
[15] = test system: HOP-62 NSCLC
[16] = test system: HOP-92 NSCLC
[17] = test system: HS 578T breast
[18] = test system: HT29 colon
[19] = test system: IGROV1 ovarian
[20] = test system: K-562 leukemia
[21] = test system: KM12 colon
[22] = test system: LOX IMVI melanoma
[23] = test system: M14 melanoma
[24] = test system: MALME-3M melanoma
[25] = test system: MCF7 breast
[26] = test system: MDA-MB-231 breast
[27] = test system: MDA-MB-435
[28] = test system: MOLT-4 leukemia
[29] = test system: NCI-H226 lung

## CNC(=O)c1cccc(C#Cc2cncnc2Nc2ccc(OCc3cccc(F)c3)c(Cl)c2)c1
[1]
  GI50: 6.33 µM
  TGI: > 25 µM
[2]
  GI50: 1.84 µM
  TGI: 10.9 µM
[3]
  GI50: 3.85 µM
  TGI: 8.9 µM
[4]
  GI50: 4.18 µM
  TGI: 24.9 µM
[5]
  GI50: 8.56 µM
  TGI: > 25 µM
[6]
  GI50: 2.09 µM
  TGI: > 25 µM
[7]
  GI50: > 25 µM
  TGI: > 25 µM
[8]
  GI50: 7.5 µM
  TGI: > 18.4 µM
[9]
  GI50: 3.57 µM
  TGI: 8.96 µM
[10]
  GI50: 1.22 µM
  TGI: > 25 µM
[11]
  GI50: 9.15 µM
  TGI: > 25 µM
[12]
  GI50: 5.11 µM
  TGI: 13.6 µM
[13]
  GI50: 6.52 µM
  TGI: > 25 µM
[14]
  GI50: > 25 µM
  TGI: > 25 µM
[15]
  GI50: 5.03 µM
  TGI: 10.4 µM
[16]
  GI50: 3.31 µM
  TGI: 11 µM
[17]
  GI50: 7.47 µM
  TGI: > 25 µM
[18]
  GI50: 8.64 µM
  TGI: > 25 µM
[19]
  GI50: 4.66 µM
  TGI: > 25 µM
[20]
  GI50: 9.7 µM
  TGI: > 25 µM
[21]
  GI50: 7.22 µM
  TGI: > 19.4 µM
[22]
  GI50: 5.77 µM
  TGI: > 17 µM
[23]
  GI50: 10.7 µM
  TGI: > 25 µM
[24]
  GI50: 9.31 µM
  TGI: 24.6 µM
[25]
  GI50: 4.61 µM
  TGI: 12.5 µM
[26]
  GI50: 5.95 µM
  TGI: > 19.5 µM
[27]
  GI50: 7.02 µM
  TGI: > 25 µM
[28]
  GI50: > 25 µM
  TGI: > 25 µM
[29]
  GI50: 5.8 µM
  TGI: > 17.9 µM

Source: PubChem BioAssay (NCI)
